Assay results as given in patent publication US9549945B2, “Use of alkylated semi-synthetic glycosaminoglycosan ethers for the treatment of inflammation” (University of Utah Research Foundation, priority 2008, dated 2017).
Entries after “also recorded” stand apart in the source; their conditions may differ.

What was measured:
[1] = tested on: RAGE expression in ARPE-19 cells; experiment: AGE (CML-BSA)-induced RAGE expression in ARPE-19 cells (immunoblot); type: cell-based, human; conditions: ARPE-19 cells on CML-BSA coated plates
Protocol: Experiments studying the biology of RAGE in cultured RPE cells using the ARPE-19 human RPE cell line were conducted. As shown in immunoblots (FIG. 17), ARPE-19 cells express at least 4 isoforms of RAGE ranging from 45-50 kDa in cell lysates, and secrete these isoforms into conditioned media. […] Because RAGE ligation activates the transcription factor NF-κB, enhanced expression of RAGE greatly promotes pro-inflammatory signaling. […] This would prevent “feed-forward” pro-inflammatory increases in RAGE expression itself by RAGE ligation.

ARPE-19 cells = experiment: AGE-BSA induced apoptosis of ARPE-19 cells (Live/Dead stain); type: cell-based, human; conditions: AGE-BSA 25 μM, 40 h; test substance 200 μM
Protocol: The ability of AGE products to induce RPE cell apoptosis was investigated. ARPE-19 cells were grown to confluence on round coverslips, then transferred to new dishes for exposure to 25 μM AGE-BSA for 40 h. Apoptosis was then assayed with Molecular Probes Fixable Live/Dead Cell Stain Kit (L11101, Eugene, Oreg.). […] Nuclei are stained […] with DAPI; dead cells are stained green. A. BSA control. Some dead cells are noted at the edges of the coverslip, but live and dead cells are interspersed at the interface. B. AGE-BSA (25 μM). Significant cell death is seen around the edges, and the boundary between live and dead cells is stark. C. AGE-BSA (25 μM)+ODSH (200 μM).

[2] = tested on: LL-37 induced skin inflammation; experiment: SAGE topical treatment in LL-37 rosacea model; type: in vivo, Balb/c mice; conditions: topical administration
Protocol: Balb/c mice were shaved […] area of skin on the back. We then began topical application of a hyaluronan-cased emollient containing 5% SAGEs (active emollient) or hyaluronic acid based emollient alone to this area of skin every 12 hours. Twenty-four hours later, we injected 40 μL of vehicle (PBS) or cationic peptide (at 320 μM concentration) subcutaneously into the shaved skin in the manner described previously. Injections and topical emollient applications were repeated every 12 h thereafter. Forty-eight hours after the initial injection (four injections in total), animals were lightly anesthetized as described previously. […] The intensity of erythema was assessed as a redness score (from 1 to 5), and the area of erythema was measured with calipers. […]
For each mouse, tissue biopsies (6 mm diameter hole punch) were taken immediately, weighted, frozen and stored at −80° C. Tissue MPO activity was measured using a method by Suzuki et. al. (Suzuki K, Ota H, Sasagawa S, Sakatani T, Fujikura T. Assay method for myeloperoxidase in human polymorphonuclear leukocytes. Anal Biochem 132:345-352, 1983) as modified by Young et. al. (Young J M, Spires D A, Bedord C J, Wagner B, Ballaron S J, De oung LM. The mouse ear inflammatory response to topical arachidonic acid. J Invest Dermatol 82:367-371, 1984). […] MPO enzyme activity was assessed at an absorbance wavelength of 630 nm. […]

[3] = biological target: T1, Hageman factor (Factor XII) (Homo sapiens, UniProt P00748); experiment: Hageman factor (Factor XII) activation in pooled human plasma, amidolytic activity; type: biochemical; conditions: FIG. 19
T1 construct: from tissue; host or cells: pooled human plasma
T1 sequence (P00748 20-615): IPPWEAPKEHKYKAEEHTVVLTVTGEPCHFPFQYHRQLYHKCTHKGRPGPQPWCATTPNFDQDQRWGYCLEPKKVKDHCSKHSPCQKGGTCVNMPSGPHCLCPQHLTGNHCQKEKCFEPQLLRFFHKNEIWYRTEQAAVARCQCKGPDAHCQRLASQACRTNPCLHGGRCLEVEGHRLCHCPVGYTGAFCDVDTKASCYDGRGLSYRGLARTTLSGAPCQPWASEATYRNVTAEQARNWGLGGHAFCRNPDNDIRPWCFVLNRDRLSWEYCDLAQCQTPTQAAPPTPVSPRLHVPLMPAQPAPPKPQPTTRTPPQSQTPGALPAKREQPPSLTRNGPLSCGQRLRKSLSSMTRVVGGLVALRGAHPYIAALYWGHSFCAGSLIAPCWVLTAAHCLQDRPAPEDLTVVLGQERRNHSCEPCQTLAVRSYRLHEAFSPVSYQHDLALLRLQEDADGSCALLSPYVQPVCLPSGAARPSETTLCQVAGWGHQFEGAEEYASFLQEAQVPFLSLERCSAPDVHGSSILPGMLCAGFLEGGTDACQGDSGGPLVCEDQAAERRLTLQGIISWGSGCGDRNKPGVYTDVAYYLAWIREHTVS
Protocol: Nat Biotech 26:669-675, 2008). […] Amidolytic activity specific for active kallikrein was determined by adding D-Pro-Phe-Arg-p-NA and following change in absorbance at […].

Xa = experiment: Anti-Xa anticoagulant activity; type: biochemical
IIa = experiment: Anti-IIa anticoagulant activity; type: biochemical

Substance: 2-O, 3-O desulfated heparin [ODSH]
- up-regulation of RAGE expression by CML-BSA [1]: prevented up-regulation of RAGE expression
- AGE-induced apoptosis (ARPE-19 cells): some protection but significant apoptosis still occurs; also recorded: reduced

Substance: Hyaluronic acid [HA, reference compound]
- MPO activities in LL-37 rosacea model, SAGE vs. HA [2]: did not alleviate
- inflammation in LL-37 rosacea model, SAGE vs. HA [2]: did not alleviate inflammation

Substance: heparin
- concentration that activates Factor XII [3]: 400 ng/mL
- anti-Xa anticoagulant activity (Xa): 150 U/mg
- anti-IIa anticoagulant activity (IIa): 150 U/mg
